# Where a name gives a salt, the structure may show the parent alone.
# Columns and labels:
# [1] = target: T1, human noradrenaline transporter (hNET) (Homo sapiens, UniProt P23975); assay: Inhibition of 3H-noradrenaline uptake in HEK-293 cells expressing hNET; format: cell-based; details: HEK-293 cells with hNET; 3H-noradrenaline 200 nM; 15 min incubation at 25° C.; read-out: NRI IC50
# T1 construct: expressed in transfected cells; host or cells: HEK-293
# Protocol: (§1) The compounds were tested for biological activity by their ability to inhibit the uptake of serotonin and/or noradrenaline by human serotonin and/or noradrenaline transporters as follows.
# (§2) (i) Cell Culture • Human embryonic kidney cells (HEK-293) stably transfected with either the human serotonin transporter (hSERT), noradrenaline transporter (hNET) or dopamine transporter (hDAT) were cultured under standard cell culture techniques (cells were grown at 37° C. and 5% CO2in either Dulbecco's Modified Eagle's Medium (DMEM) culture media supplemented with 10% dialysed foetal calf serum (FCS), 2 mM L-glutamine and 250 μg/ml geneticin (hSERT and hNET cells) or DMEM-culture media supplemented with 5% FCS, 5% new-born calf serum, 2 mM L-glutamine and […] (hDAT cells)). Prior to assay, cells were harvested by dissociation using cell dissociation solution (Sigma) and centrifugation, and resuspended in standard assay buffer (see below) at a viable cell density of 750,000 cells/ml.
# (§3) (i) Determination of Inhibitor Potency • All test compounds were dissolved in 100% DMSO at 4 mM and diluted down in 1% DMSO in water to give appropriate test concentrations. Assays were carried out in 96-well filter bottom plates. Cells expressing the appropriate human transporter protein (75,000 cells/assay well) were pre-incubated at 25° C. in standard assay buffer containing either test compound, a standard inhibitor (positive control) or compound vehicle (DMSO in water; final DMSO concentration was 0.1% in each assay well) for 5 minutes. Reactions were started by addition of either ^3H-serotonin, ^3H-noradrenaline or ^3H-dopamine substrates. All reactions were carried out at 25° C. in a shaking incubator. Incubation times were 5 minutes for the hSERT and hDAT assays and 15 minutes for the hNET assay. Reactions were terminated by addition of ice-cold wash buffer (see below), followed by filtration of the assay mixture using a vacuum manifold and rapid washing with icecold wash buffer. The quantity of ^3H-substrate incorporated into the cells was then quantified: Filtered/washed assay plates were dried at 45° C. for 1 hour, scintillation fluid added, and radioactivity measured by scintillation counting. Potency of test compounds was quantified as IC50 values (concentration of test compound required to inhibit the specific uptake of radiolabelled substrate into the cells by 50% relative to maximum (compound vehicle only) and minimum (complete inhibition by standard inhibitor) responses).
# (§4) (iii) Standard Assay Buffer Composition: • Tris(hydroxymethyl)amino methane hydrochloride (26 mM) • NaCl (124 mM) • KCl (4.5 mM) • KH2PO4 (1.2 mM) • MgCl2.6H2O (1.3 mM) • Ascorbic acid (1.136 mM) • Glucose (5.55 mM) • pH 7.40 • CaCl2 (2.8 mM) • Pargyline (100 μM) • Note: The pH of the buffer was adjusted to 7.40 with 1 M NaOH before addition of CaCl2 and pargyline. • Wash Buffer Composition: • Tris(hydroxymethyl)methylamine (26 mM) • NaCl (124 mM) • KCl (4.5 mM) • KH2PO4 (1.2 mM) • MgCl2.6H2O (1.3 mM) • Ascorbic acid (1.136 mM) • pH 7.40 at 4° C. with 6M HCl
# (§5) (iv) Summary of Assay Parameters
# [2] = target: T2, human serotonin transporter (hSERT) (Homo sapiens, UniProt P31645); assay: Inhibition of 3H-serotonin uptake in HEK-293 cells expressing hSERT; format: cell-based; details: HEK-293 cells with hSERT; 3H-5HT 50 nM; 5 min incubation at 25° C.; read-out: SRI IC50
# T2 construct: expressed in transfected cells; host or cells: HEK-293
# T2 sequence (P31645 whole entry): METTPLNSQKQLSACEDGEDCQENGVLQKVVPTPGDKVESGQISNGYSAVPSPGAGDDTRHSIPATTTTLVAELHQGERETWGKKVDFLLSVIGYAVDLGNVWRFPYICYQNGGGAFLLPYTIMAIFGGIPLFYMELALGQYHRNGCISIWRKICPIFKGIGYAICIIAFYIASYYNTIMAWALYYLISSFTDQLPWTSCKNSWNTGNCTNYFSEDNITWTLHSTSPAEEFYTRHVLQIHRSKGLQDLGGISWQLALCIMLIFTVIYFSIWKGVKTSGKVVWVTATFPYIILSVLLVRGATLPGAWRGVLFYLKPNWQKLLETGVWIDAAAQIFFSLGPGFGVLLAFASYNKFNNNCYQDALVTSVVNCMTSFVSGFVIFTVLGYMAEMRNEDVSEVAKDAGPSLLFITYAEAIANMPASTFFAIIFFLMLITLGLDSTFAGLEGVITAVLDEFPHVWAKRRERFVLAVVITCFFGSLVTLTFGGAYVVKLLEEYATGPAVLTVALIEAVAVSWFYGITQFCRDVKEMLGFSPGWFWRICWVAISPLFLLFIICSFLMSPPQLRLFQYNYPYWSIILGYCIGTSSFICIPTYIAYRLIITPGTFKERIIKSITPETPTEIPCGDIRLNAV
# Protocol: as §1, §2, §3, §4, §5
# T1 sequence (P23975 whole entry): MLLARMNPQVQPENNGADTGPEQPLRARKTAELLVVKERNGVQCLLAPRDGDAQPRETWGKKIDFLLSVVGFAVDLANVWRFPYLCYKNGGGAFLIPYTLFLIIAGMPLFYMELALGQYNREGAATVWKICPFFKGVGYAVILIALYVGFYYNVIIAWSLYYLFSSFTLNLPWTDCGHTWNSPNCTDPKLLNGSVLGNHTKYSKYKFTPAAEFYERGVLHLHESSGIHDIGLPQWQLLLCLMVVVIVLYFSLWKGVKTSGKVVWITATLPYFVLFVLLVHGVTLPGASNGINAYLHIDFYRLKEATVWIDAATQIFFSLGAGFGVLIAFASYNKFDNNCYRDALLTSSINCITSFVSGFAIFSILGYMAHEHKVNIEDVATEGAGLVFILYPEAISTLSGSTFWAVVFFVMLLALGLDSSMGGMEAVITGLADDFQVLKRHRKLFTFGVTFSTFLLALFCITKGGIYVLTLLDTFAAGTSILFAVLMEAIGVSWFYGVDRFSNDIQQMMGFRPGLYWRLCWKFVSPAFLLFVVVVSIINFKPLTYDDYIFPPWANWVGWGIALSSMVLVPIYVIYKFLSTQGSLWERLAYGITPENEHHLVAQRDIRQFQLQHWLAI
SMILES,IC50 [1] [nM],IC50 [2] [nM]
"O=C(c1ccccc1)N(Cc1ccc2ccccc2c1)[C@@H]1CCNC1 [Example 10, N-(2-Naphthylmethyl)-N-[(3R)-pyrrolidin-3-yl]benzamide hydrochloride]",7.7,7.6
"O=C(c1ccc(Cl)cc1)N(Cc1ccc(Cl)c(Cl)c1)[C@@H]1CCNC1 [Example 13, 4-Chloro-N-(3,4-dichlorobenzyl)-N-[(3R)-pyrrolidin-3-yl]benzamide hydrochloride]",3.1,8.8
"CC(C)CN(C(=O)c1cc(F)c(Cl)cc1Cl)[C@H]1CCNC1 [Example 15, 2,4-Dichloro-5-fluoro-N-isobutyl-N-[(3S)-pyrrolidin-3-yl]benzamide hydrochloride]",71.6,17.5
"COc1cccc(C(=O)N(CC(C)C)[C@H]2CCNC2)c1C [Example 5, 3-Methoxy-2-methyl-N-isobutyl-N-[(3S)-pyrrolidin-3-yl]benzamide]",32.9,10.9
"Cc1c(F)cccc1C(=O)N(CC(C)C)[C@H]1CCNC1 [Example 4, 3-Fluoro-2-methyl-N-isobutyl-N-[(3S)-pyrrolidin-3-yl]benzamide]",45.9,18.8
"O=C(c1ccc(Cl)cc1)N(Cc1cccc(Cl)c1Cl)[C@@H]1CCNC1 [Example 14, 4-Chloro-N-(2,3-dichlorobenzyl)-N-[(3R)-pyrrolidin-3-yl]benzamide hydrochloride]",57.1,43
"Cc1cccc(C(=O)N(CC(C)C)[C@H]2CCNC2)c1Cl [Example 3, 2-Chloro-3-methyl-N-isobutyl-N-[(3S)-pyrrolidin-3-yl]benzamide]",21.2,22.3
"CCCCN(C(=O)c1cccc2ccccc12)[C@H]1CCNC1 [Example 12, N-Butyl-N-[(3S)-pyrrolidin-3-yl]-1-naphthamide hydrochloride]",26.3,21.5
"O=C(c1ccccc1)N(Cc1ccc2ccccc2c1)[C@H]1CCNC1 [Example 9, N-(2-Naphthylmethyl)-N-[(3S)-pyrrolidin-3-yl]benzamide hydrochloride]",14,5.7

# The next lines start with the values.
IC50 [1] [nM],IC50 [2] [nM],SMILES
16.7,7.5,"CC(C)CN(C(=O)c1ccc(Cl)c(Cl)c1)[C@H]1CCNC1 [Example 8, 3,4-Dichloro-N-isobutyl-N-[(3S)-pyrrolidin-3-yl]benzamide]"
55.4,5.7,"CC(C)CN(C(=O)c1ccc(Cl)cc1)[C@H]1CCNC1 [Example 7, 4-Chloro-N-isobutyl-N-[(3S)-pyrrolidin-3-yl]benzamide]"
28.5,9.7,"CC(C)CN(C(=O)c1ccc(Cl)cc1Cl)[C@H]1CCNC1 [Example 2, 2,4-Dichloro-N-isobutyl-N-[(3S)-pyrrolidin-3-yl]benzamide hydrochloride]"
17,3.2,"CC(C)CN(C(=O)c1ccc2ccccc2c1)[C@H]1CCNC1 [Example 11, N-Isobutyl-N-[(3S)-pyrrolidin-3-yl]-2-naphthamide hydrochloride]"
56.9,45.2,"CC(C)CN(C(=O)c1cccc(Cl)c1)[C@H]1CCNC1 [Example 6, 3-Chloro-N-isobutyl-N-[(3S)-pyrrolidin-3-yl]benzamide]"
14.1,13.9,"CC(C)CN(C(=O)c1cccc(Cl)c1Cl)[C@H]1CCNC1 [Example 1, 2,3-Dichloro-N-isobutyl-N-[(3S)-pyrrolidin-3-yl]benzamide citrate]"
